The record followed here is ChEMBL document CHEMBL1151036, “Synthesis and HIV-1 inhibition of novel benzimidazole derivatives” (Bioorg Med Chem Lett, 1995).

A value given as a limit tells only on which side of the number the result lay.

What is called EC50 is the midpoint of the concentration-response curve. Lower therefore signals a more potent agent. The term inhibition denotes the share of the control response that was lost under treatment. A low value points to a weak effect.

Assay [1] has as its system C8166. In words: Inhibitory activity against HIV-111B in C8166 cells. The format is functional, cell-based. The following applies: Homo sapiens.
In assay [2] the test system is C8166. The assay is described as follows: Compound was tested for toxicity against HIV-111B in C8166 cells. Type of assay: functional. The following applies: Homo sapiens, read-out: TC50 (the source's name).
For assay [3], the target named is Human immunodeficiency virus type 1 reverse transcriptase (Human immunodeficiency virus 1) (UniProt Q72547). In words: Compound was tested for % inhibition of HIV-1 reverse transcriptase (RT). The following applies: concentration not given here.
Assay [4] can be described thus: Selectivity ratio of TC50 to that of EC50. Type of assay: functional.
Assay [5] deals with Human immunodeficiency virus type 1 reverse transcriptase (Human immunodeficiency virus 1) (UniProt Q72547). In words: Concentration required for inhibition of HIV-1 reverse transcriptase (RT).
The test system of assay [6] is C8166. In words: Compound was tested for toxicity against HIV-111B in C8166 cells; value ranges from 20-30 uM. The following applies: Homo sapiens, read-out: TC50 (the source's name). Type of assay: functional.
Assay [7] is described as follows: Selectivity ratio of TC50 to that of EC50; value ranges from 12.5-19. The format is functional.
Assay [8] is described as follows: Selectivity ratio of TC50 to that of EC50; value ranges from 33-50. Type of assay: functional.

In the case of `CCCOn1c(CC)nc2ccc(Cl)cc21`, in the assay on C8166 [1], the EC50 stood at 0.6 µM. For the same compound, the CC50 with C8166 [2] came to 40 µM. For the same compound, in assay [3], the inhibition was determined as 50%. Besides, in assay [4], the Ratio is 67. The compound further had a Concentration in assay [5] of 10 µM.
In the assay on C8166 [1], `CCCOn1c(CC)nc2ccc(OC)cc21` gave an EC50 of 3.2 µM. Besides, in the assay on C8166 [2], the CC50 was found to be 100 µM. The Ratio in assay [4] was 31.
Compound `CC(C)=CCN1Cc2cc(Cl)cc3[nH]c(=S)n(c23)C[C@@H]1C` showed an EC50 in the assay with C8166 [1] of 0.002 µM. Moreover, the CC50 in the assay on C8166 [2] amounted to 62 µM. The compound also registered an inhibition in assay [3] of 50%. In assay [4], the Ratio is 31000. The same compound displayed a Concentration in assay [5] of 0.16 µM.
On to `CCCOn1c(CC)nc2ccc(C)cc21`, for which the EC50 in the assay with C8166 [1] came out at 1.6 µM. Further, the CC50 in the assay on C8166 [6] stood at 20 µM. Further, the Ratio in assay [7] is 12.5.
Compound `CCCOn1c(CC)nc2ccccc21` yielded an EC50 with C8166 [1] of 2 µM. Also, in assay [8], the Ratio was 33. The CC50 in the assay with C8166 [2] stood at 100 µM.
In the assay with C8166 [1], `CCCn1c(SC)nc2c(CBr)cccc21` registered an EC50 of 8 µM. The CC50 in the assay on C8166 [2] was 80 µM. Further, in assay [4], the Ratio turned out to be 10.
Consider `Cc1cn([C@H]2C[C@H](N=[N+]=[N-])[C@@H](CO)O2)c(=O)[nH]c1=O` [ZIDOVUDINE], for which the CC50 in the assay with C8166 [2] is over 1000 µM.
In the assay on C8166 [1], `CCCOn1c(CC)nc2c(C)cccc21` had an EC50 of 6 µM. The CC50 with C8166 [2] is 1000 µM. This compound returned an inhibition in assay [3] of 66%. Moreover, the Ratio in assay [4] turned out to be 167. The compound also displayed a Concentration in assay [5] of 100 µM.
Compound `CCCn1c(SC)nc2c(C)cccc21` registered an EC50 with C8166 [1] of 4 µM. In addition, the CC50 with C8166 [2] is 100 µM. Moreover, the Ratio in assay [4] was found to be 25.
